Source: ChEMBL document CHEMBL1201862, “PubChem BioAssay data set” (2004)
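The compound was tested at five concentrations on cells cultured in 96-well plates, with a 48-hour exposure period. GI50 is the concentration that inhibits growth by half.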 Active and inactive are the calls of the source. Rule as the data show it: active = GI50 up to about 1.1 µM and inactive = higher.

How the values were obtained:
Assay in all cases: inhibition of tumour cell growth, NCI panel, 48 h
SK-MEL-2 = tested on: SK-MEL-2
BT-549 = tested on: BT-549
A498 = tested on: A498
KM12 = tested on: KM12
SF-539 = tested on: SF-539
CAKI-1 = tested on: CAKI-1
HCC 2998 = tested on: HCC 2998
OVCAR-5 = tested on: OVCAR-5
SK-MEL-28 = tested on: SK-MEL-28
SF-295 = tested on: SF-295
SK-OV-3 = tested on: SK-OV-3
NCI-H23 = tested on: NCI-H23
NCI-H522 = tested on: NCI-H522
EKVX = tested on: EKVX
HCT-15 = tested on: HCT-15
M14 = tested on: M14
MDA-MB-435 = tested on: MDA-MB-435
LOX IMVI = tested on: LOX IMVI

Row | SMILES | GI50 (SK-MEL-2) | GI50 (BT-549) | GI50 (A498) | GI50 (KM12) | GI50 (SF-539) | GI50 (CAKI-1) | GI50 (HCC 2998) | GI50 (OVCAR-5) | GI50 (SK-MEL-28) | GI50 (SF-295) | GI50 (SK-OV-3) | GI50 (NCI-H23) | GI50 (NCI-H522) | GI50 (EKVX) | GI50 (HCT-15) | GI50 (M14) | GI50 (MDA-MB-435) | GI50 (LOX IMVI)
1 | O=C1C(Cl)C(c2cc3cc(Br)ccc3nc2Cl)N1c1c(Cl)cccc1Cl (stereo not drawn) | > 25 µM (inactive) | 10.2 µM (inactive) | > 25 µM (inactive) | > 25 µM (inactive) | 5.27 µM (inactive) | 8.65 µM (inactive) | 23.8 µM (inactive) | > 25 µM (inactive) | > 25 µM (inactive) | > 25 µM (inactive) | > 25 µM (inactive) | 20.4 µM (inactive) | 5.37 µM (inactive) | 6.32 µM (inactive) | 13.4 µM | 22.1 µM (inactive) | 8.67 µM (inactive) | 3.66 µM (inactive)
2 | NC1(c2cc3ccccc3s2)CCCC1 | 58.9 µM (inactive) | > 100 µM (inactive) | > 100 µM (inactive) | 43.9 µM (inactive) | 18.5 µM (inactive) | > 100 µM (inactive) | 21.2 µM (inactive) | > 100 µM (inactive) | 23.7 µM (inactive) | 71.3 µM (inactive) | > 100 µM (inactive) | > 100 µM (inactive) | 92.5 µM (inactive) | > 100 µM (inactive) | 65.2 µM | 25.5 µM (inactive) | 41 µM (inactive) | 36.5 µM (inactive)
3 | N#CC1(C#N)C2=C(CCCC2)NC(c2ccc(Br)cc2)C1(C#N)C#N (stereo not drawn) | 15.6 µM (inactive) | 13.8 µM (inactive) | 19 µM (inactive) | 15.1 µM (inactive) | 14.2 µM (inactive) | 1.75 µM (inactive) | 20.5 µM (inactive) | 9.95 µM (inactive) | 12.6 µM (inactive) | 22.8 µM (inactive) | 22.7 µM (inactive) | 12.3 µM (inactive) | 0.927 µM (active) | 12.4 µM (inactive) | 2.42 µM | 2.63 µM (inactive) | 3.68 µM (inactive) | 2.11 µM (inactive)
4 | N#Cc1c(C#N)c(SSc2c(C#N)c(C#N)c(N)n2-c2ccc(F)cc2)n(-c2ccc(F)cc2)c1N | 22.4 µM (inactive) | 2.88 µM (inactive) | 8.11 µM (inactive) | 23.2 µM (inactive) | 19.2 µM (inactive) | 8.17 µM (inactive) | 21.8 µM (inactive) | 17.1 µM (inactive) | 3.72 µM (inactive) | 17.9 µM (inactive) | 17.5 µM (inactive) | 6.73 µM (inactive) | 1.7 µM (inactive) | 2.2 µM (inactive) | 2.03 µM | 4.8 µM (inactive) | 8.11 µM (inactive) | 26.4 µM (inactive)
5 | C=C(NC(=O)C(=C)NC(=O)c1csc(C2=NC3c4csc(n4)C4NC(=O)c5csc(n5)C(C(C)(O)C(C)O)NC(=O)C5CSC(=N5)/C(=C/C)NC(=O)C(C(C)O)NC(=O)c5csc(n5)C3(CC2)NC(=O)C(C)NC(=O)C(=C)NC(=O)C(=C)NC(=O)C(C(C)C)NC2C=Cc3c(C(C)O)cc(nc3C2O)C(=O)OC4C)n1)C(N)=O (stereo not drawn) | 2.22 µM (inactive) | 2.37 µM (inactive) | 2.29 µM (inactive) | 2.66 µM (inactive) | 0.34 µM (active) | 3.69 µM (inactive) | 16.1 µM (inactive) | 4.09 µM (inactive) | 1.38 µM (inactive) | 26 µM (inactive) | 19.6 µM (inactive) | 7.13 µM (inactive) | 0.158 µM (active) | 3.92 µM (inactive) | 9.25 µM | 2.62 µM (inactive) | 0.743 µM (active) | 0.357 µM (active)
6 | O=S(=O)(O)CCSSCCS(=O)(=O)O | > 1000 µM (inactive) | > 1000 µM (inactive) | > 1000 µM (inactive) | > 1000 µM (inactive) | > 1000 µM (inactive) | > 1000 µM (inactive) | > 1000 µM (inactive) | > 1000 µM (inactive) | > 1000 µM (inactive) | > 1000 µM (inactive) | > 1000 µM (inactive) | > 1000 µM (inactive) | > 1000 µM (inactive) | > 1000 µM (inactive) | > 1000 µM | > 1000 µM (inactive) | > 1000 µM (inactive) | > 1000 µM (inactive)
